Measured values published in US10239873B2, “7-azaindole or 4,7-diazaindole derivatives as IKKϵ epsilon and TBK1 inhibitor and pharmaceutical composition comprising same” (GREEN CROSS CORPORATION, priority 2015, dated 2019).
Counter-ions that a name gives are not always drawn.

Experiments:
IKKε = target: T1, IKKε (Homo sapiens, UniProt Q14164); experiment: ADP-Glo Kinase Assay, inhibition activity on IKKε; assay type: biochemical
T1 construct: purchased Promega and/or Invitrogen V4158; PR8031B; V3991 (not assigned to the two kinases)
T1 sequence (Q14164 1-716): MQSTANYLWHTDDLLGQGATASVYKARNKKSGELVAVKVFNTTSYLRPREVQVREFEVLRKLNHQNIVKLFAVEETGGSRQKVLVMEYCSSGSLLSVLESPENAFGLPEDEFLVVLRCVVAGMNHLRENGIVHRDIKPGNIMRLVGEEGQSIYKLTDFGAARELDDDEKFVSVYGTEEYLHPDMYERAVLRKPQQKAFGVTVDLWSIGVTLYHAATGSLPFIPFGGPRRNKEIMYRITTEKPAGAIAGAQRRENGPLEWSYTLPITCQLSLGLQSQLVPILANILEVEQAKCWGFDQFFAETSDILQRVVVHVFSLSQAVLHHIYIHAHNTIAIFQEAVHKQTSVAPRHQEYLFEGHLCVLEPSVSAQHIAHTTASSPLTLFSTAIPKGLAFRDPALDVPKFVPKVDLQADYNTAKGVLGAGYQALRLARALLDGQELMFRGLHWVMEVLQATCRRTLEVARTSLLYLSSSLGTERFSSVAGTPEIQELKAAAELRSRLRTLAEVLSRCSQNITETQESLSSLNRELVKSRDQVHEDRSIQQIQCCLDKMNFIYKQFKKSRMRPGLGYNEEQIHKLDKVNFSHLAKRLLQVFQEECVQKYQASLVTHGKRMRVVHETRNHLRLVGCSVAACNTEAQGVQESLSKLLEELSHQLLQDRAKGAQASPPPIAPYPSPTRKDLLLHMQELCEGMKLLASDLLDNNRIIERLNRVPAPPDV
Method in brief: (§1)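 In 40 mM Tris pH 7.5 with 20 mM MgCl2 and 0.1 mg/mL BSA, each enzyme (IKKε or TBK1 kinase system) was run according to the manufacturer's protocol. ADP formed was detected by ADP-Glo luminescence.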

TBK1 = target: T2, TBK1 (Homo sapiens, UniProt Q9UHD2); experiment: ADP-Glo Kinase Assay, inhibition activity on TBK1; assay type: biochemical
T2 construct: purchased Promega (Invitrogen is also named in the same bracket) V4158; PR8031B; V3991 (not assigned to the two kinases)
T2 sequence (Q9UHD2 1-729): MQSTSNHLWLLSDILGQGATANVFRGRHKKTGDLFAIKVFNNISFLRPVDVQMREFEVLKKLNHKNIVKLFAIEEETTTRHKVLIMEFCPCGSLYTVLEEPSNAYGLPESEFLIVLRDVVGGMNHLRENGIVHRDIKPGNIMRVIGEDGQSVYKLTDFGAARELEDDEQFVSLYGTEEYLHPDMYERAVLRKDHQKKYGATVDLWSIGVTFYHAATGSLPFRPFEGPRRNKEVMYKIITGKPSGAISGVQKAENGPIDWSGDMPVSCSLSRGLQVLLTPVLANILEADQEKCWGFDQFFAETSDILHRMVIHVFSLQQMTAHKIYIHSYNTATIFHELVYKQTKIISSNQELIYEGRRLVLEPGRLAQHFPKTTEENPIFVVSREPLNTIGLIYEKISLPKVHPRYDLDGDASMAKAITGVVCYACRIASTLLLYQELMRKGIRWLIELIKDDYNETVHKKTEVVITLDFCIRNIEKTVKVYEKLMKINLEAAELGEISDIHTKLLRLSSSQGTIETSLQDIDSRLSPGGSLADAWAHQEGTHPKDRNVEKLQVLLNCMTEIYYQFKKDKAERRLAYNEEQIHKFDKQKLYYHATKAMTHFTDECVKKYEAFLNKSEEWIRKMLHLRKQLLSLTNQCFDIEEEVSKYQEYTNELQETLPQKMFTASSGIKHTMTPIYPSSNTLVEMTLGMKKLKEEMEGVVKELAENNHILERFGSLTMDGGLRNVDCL
Method in brief: as §1

Row | IC50 (IKKε) | IC50 (TBK1) | Structure (SMILES)
1 | 280 nM | 36 nM | Cc1ccc(-c2cnc3[nH]cc(C4=CCN(C(=O)NC(C)C)CC4)c3c2)cc1 [Example 16, N-isopropyl-4-(5-(p-tolyl)-1H-pyrrolo[2,3-b]pyridin-3-yl)-3,6-dihydropyridine-1(2H)-carboxamide]
2 | 29 nM | 16 nM | CC(C)NC(=O)N1CC=C(c2c[nH]c3ncc(-c4cccc(CN5CCOCC5)c4)cc23)CC1 [Example 29, N-isopropyl-4-(5-(3-(morpholinomethyl)phenyl)-1H-pyrrolo[2,3-b]pyridin-3-yl)-5,6-dihydropyridine-1(2H)-carboxamide]
3 | 24 nM | 3.3 nM | O=C(NC1CC1)N1CC=C(c2c[nH]c3ncc(-c4ccc(CN5CCNCC5)s4)cc23)CC1 [Example 45, N-cyclopropyl-4-(5-(5-(piperazin-1-ylmethyl)thiophen-2-yl)-1H-pyrrolo[2,3-b]pyridin-3-yl)-5,6-dihydropyridine-1(2H)-carboxamide dihydrochloride]
4 | 13 nM | 10 nM | CC(C)NC(=O)N1CC=C(c2c[nH]c3ncc(-c4ccc(NC5CCOCC5)cc4)cc23)CC1 [Example 37, N-isopropyl-4-(5-(4-((tetrahydro-2H-pyran-4-yl)amino)phenyl)-1H-pyrrolo[2,3-b]pyridin-3-yl)-3,6-dihydropyridine-1(2H)-carboxamide]

Row | Structure (SMILES) | IC50 (IKKε) | IC50 (TBK1)
5 | CCCN1CC=C(c2c[nH]c3ncc(-c4ccc(OC)c(OC)c4)cc23)CC1 [Example 4, 5-(3,4-Dimethoxyphenyl)-3-(1-propyl-1,2,3,6-tetrahydropyridin-4-yl)-1H-pyrrolo[2,3-b]pyridine] | 5140 nM | 3230 nM
